Measured values as given in patent publication US6960597B2, “Aza-bridged-bicyclic amino acid derivatives as α4 integrin antagonists” (Orth-McNeil Pharmaceutical, Inc., priority 2000, dated 2005).
Read-outs that look alike come from different tables or passages of the source.

Assays:
α4β1 integrin receptor = biological target: T1, α4β1 integrin receptor (Homo sapiens, UniProt P05556+P13612); assay: Ramos Cell Adhesion Assay (α4β1 Mediated Adhesion/VCAM-1); type: cell-based
T1 construct: Ramos Cell Adhesion Assay (α4β1 Mediated Adhesion/VCAM-1); endogenous in cells; host or cells: Ramos cells
T1 sequence (P05556 21-798, one chain of several): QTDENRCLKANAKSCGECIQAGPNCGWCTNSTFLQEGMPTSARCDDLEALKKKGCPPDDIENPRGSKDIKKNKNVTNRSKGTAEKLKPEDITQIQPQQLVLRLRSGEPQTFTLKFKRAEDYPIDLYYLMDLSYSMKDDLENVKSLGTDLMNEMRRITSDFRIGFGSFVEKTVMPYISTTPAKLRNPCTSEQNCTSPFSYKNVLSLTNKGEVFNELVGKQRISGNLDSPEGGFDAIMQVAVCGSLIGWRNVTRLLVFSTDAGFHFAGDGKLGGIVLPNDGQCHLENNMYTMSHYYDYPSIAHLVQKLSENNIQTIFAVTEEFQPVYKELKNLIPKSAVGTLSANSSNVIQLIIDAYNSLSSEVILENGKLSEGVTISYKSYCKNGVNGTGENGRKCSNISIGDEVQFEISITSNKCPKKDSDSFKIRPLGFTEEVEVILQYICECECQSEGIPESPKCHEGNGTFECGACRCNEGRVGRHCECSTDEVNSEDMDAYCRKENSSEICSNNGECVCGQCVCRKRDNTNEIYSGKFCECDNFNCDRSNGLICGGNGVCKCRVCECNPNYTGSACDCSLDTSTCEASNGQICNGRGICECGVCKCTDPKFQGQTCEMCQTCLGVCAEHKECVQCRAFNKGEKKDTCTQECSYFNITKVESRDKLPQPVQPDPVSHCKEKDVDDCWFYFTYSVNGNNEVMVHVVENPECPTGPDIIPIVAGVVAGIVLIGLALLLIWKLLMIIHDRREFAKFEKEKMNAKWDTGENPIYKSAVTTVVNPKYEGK
Procedure, shortened: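 Plates coated overnight at 4° C with recombinant hVCAM-1 (4.0 μg/mL, pH 9.0), then blocked with PBS/1% BSA. Ramos cells labelled with 5 μM Calcein AM adhered 1 h at room temperature with compound; after washing, cells were lysed in SDS and fluorescence read at 485/530 nm.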

human α4β7 = biological target: T2, human α4β7 (Homo sapiens, UniProt P13612+P26010); assay: α4β7-K562 Cell Adhesion Assay (α4β7 Mediated Adhesion/VCAM-1); type: cell-based
T2 construct: expressed in transfected cells
T2 sequence (P13612 34-1032): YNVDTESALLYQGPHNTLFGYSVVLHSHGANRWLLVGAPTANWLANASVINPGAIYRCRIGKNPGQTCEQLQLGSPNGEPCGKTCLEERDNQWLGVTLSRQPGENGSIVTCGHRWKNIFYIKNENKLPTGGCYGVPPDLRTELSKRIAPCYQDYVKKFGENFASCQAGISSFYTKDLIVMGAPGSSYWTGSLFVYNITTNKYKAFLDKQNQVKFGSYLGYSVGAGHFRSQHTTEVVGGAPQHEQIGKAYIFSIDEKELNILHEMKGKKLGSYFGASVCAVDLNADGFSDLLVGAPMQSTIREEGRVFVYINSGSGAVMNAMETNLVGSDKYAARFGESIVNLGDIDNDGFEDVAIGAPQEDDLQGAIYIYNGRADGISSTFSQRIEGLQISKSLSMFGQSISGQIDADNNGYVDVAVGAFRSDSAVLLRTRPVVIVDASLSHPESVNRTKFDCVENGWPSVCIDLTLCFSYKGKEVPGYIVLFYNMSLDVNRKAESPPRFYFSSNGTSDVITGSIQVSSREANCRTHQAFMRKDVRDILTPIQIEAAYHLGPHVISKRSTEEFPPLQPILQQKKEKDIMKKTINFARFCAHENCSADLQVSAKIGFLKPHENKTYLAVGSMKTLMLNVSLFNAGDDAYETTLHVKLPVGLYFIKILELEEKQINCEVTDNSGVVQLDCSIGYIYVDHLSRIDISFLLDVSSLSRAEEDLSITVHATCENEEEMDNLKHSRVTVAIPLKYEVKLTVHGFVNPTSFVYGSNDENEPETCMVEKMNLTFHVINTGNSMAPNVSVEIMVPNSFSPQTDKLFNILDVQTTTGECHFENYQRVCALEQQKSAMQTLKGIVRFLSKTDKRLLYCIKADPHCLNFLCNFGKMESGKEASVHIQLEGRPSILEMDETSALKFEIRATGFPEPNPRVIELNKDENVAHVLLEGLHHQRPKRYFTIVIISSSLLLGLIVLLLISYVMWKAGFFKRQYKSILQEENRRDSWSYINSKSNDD
T2 sequence (P26010 20-798): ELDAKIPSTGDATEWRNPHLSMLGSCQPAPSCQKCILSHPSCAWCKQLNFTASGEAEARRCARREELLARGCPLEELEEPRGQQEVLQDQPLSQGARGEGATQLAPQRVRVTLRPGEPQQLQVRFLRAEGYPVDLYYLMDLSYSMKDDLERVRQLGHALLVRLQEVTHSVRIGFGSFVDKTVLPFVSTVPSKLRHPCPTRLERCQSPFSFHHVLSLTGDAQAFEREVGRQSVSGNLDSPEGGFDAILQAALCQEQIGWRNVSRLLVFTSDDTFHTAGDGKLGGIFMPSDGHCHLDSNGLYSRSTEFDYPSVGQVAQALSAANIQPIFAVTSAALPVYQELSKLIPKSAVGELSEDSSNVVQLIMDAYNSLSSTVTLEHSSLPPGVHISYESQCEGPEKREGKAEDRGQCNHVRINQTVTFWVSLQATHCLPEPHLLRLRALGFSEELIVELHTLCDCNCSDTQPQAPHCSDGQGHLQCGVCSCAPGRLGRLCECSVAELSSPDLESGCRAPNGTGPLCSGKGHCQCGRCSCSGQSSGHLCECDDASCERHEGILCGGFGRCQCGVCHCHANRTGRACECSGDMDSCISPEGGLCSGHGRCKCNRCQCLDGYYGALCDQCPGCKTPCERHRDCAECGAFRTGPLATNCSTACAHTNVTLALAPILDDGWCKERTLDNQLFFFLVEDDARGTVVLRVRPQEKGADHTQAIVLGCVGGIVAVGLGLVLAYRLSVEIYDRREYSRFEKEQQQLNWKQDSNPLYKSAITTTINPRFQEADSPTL
Procedure, shortened: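 K562 cells stably expressing human α4β7, labelled with 5 μM Calcein AM, adhered for 1 h at room temperature to plates coated with recombinant hVCAM-1 (4.0 μg/mL) in the presence of compound. After washing, cells were lysed in Tris/SDS. Bound cells were read by fluorescence at 485/530 nm.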

[1] = Table III, read-out: Inhibition of Binding of Ramos Cells to Immobilized VCAM-1 IC50
[2] = Table IV, read-out: Inhibition of Binding of K562 Cells to Immobilized VCAM-1 IC50
[3] = Table I, racemic mixtures and resolved (S,S) and (R,S) diastereomers, read-out: Antagonist IC50 Activity α4β1
[4] = Table I, racemic mixtures and resolved (S,S) and (R,S) diastereomers, read-out: Antagonist IC50 Activity α4β7
[5] = Table IV, μM, read-out: Inhibition of Binding of K562 Cells to Immobilized VCAM-1 IC50
[6] = Table III, μM, read-out: Inhibition of Binding of Ramos Cells to Immobilized VCAM-1 IC50

SMILES	IC50 (α4β1 integrin receptor; [1])	IC50 (human α4β7; [2])	IC50 (human α4β7; [5])	IC50 (α4β1 integrin receptor; [6])	also measured
O=C(Nc1ccc(C[C@H](NC(=O)[C@@H]2C3CCC(CC3)N2S(=O)(=O)c2ccccc2)C(=O)O)cc1)C1CC1 [Cpd 67, 4-[(cyclopropylcarbonyl)amino]-N-[[(3S)-2-(phenylsulfonyl)-2-azabicyclo[2.2.2]oct-3-yl]carbonyl]-L-phenylalanine]	0.628 µM	0.683 µM	–	–	–
CC(C)(C)OC(=O)N1CCC(C(=O)Nc2ccc(C[C@H](NC(=O)[C@@H]3C4CCC(CC4)N3S(=O)(=O)c3ccccc3)C(=O)O)cc2)CC1 [Cpd 53a, 4-[[[1-[(1,1-dimethylethoxy)carbonyl]-4-piperidinyl]carbonyl]amino]-N-[[(3S)-2-(phenylsulfonyl)-2-azabicyclo[2.2.2]oct-3-yl]carbonyl]-L-phenylalanine]	0.219 µM	–	–	–	IC50 (α4β1 integrin receptor; [3]): 0.219 µM; IC50 (human α4β7; [4]): 0.693 µM
O=C(N[C@@H](Cc1ccc(NS(=O)(=O)c2c(Cl)cccc2Cl)cc1)C(=O)O)C1C2CCC(CC2)N1S(=O)(=O)c1ccccc1 (stereo partly drawn) [Cpd 51, 4-[[(2,6-dichlorophenyl)sulfonyl]amino]-N-[[2-(phenylsulfonyl)-2-azabicyclo[2.2.2]oct-3-yl]carbonyl]-L-phenylalanine]	0.784 µM	–	> 5 µM	–	–
O=C(Nc1ccc(C[C@H](NC(=O)[C@H]2C3CCC(C3)N2S(=O)(=O)c2ccccc2)C(=O)O)cc1)c1c(F)cccc1F (stereo partly drawn) [Cpd 5b, 4-[(2,6-difluorobenzoyl)amino]-N-[[(3R)-2-(phenylsulfonyl)-2-azabicyclo[2.2.1]hept-3-yl]carbonyl]-L-phenylalanine]	0.394 µM	–	–	–	IC50 (α4β1 integrin receptor; [3]): 0.394 µM; IC50 (human α4β7; [4]): 3.38 µM
CN(C(=O)[C@H]1C2CCC(CC2)N1S(=O)(=O)c1ccccc1)[C@@H](Cc1ccc(NC(=O)c2c(Cl)cccc2Cl)cc1)C(=O)O [Cpd 39, 4-[(2,6-dichlorobenzoyl)amino]-N-methyl-N-[[(3R)-2-(phenylsulfonyl)-2-azabicyclo[2.2.2]oct-3-yl]carbonyl]-L-phenylalanine]	–	–	> 10 µM	> 5 µM	–
COc1cccc(OC)c1C(=O)Nc1cccc(C[C@H](NC(=O)C2C3CCC(CC3)N2S(=O)(=O)c2ccc(C)cc2)C(=O)O)c1 (stereo partly shown) [Cpd 36, 3-[(2,6-dimethoxybenzoyl)amino]-N-[[2-[(4-methylphenyl)sulfonyl]-2-azabicyclo[2.2.2]oct-3-yl]carbonyl]phenylalanine]	–	–	> 10 µM	> 5 µM	–
Cc1ccc(S(=O)(=O)N2C3CCC(CC3)C2C(=O)N[C@@H](Cc2cccc(NC(=O)c3c(F)cccc3F)c2)C(=O)O)cc1 (stereo partly drawn) [Cpd 35, 3-[(2,6-difluorobenzoyl)amino]-N-[[2-[(4-methylphenyl)sulfonyl]-2-azabicyclo[2.2.2]oct-3-yl]carbonyl]-L-phenylalanine]	–	–	> 10 µM	> 5 µM	–
O=C(Nc1ccc(C[C@H](NC(=O)[C@@H]2C3CCC(CC3)N2S(=O)(=O)c2ccccc2)C(=O)O)cc1)c1ccncc1 [Cpd 50a, 4-[(4-pyridinylcarbonyl)amino]-N-[[(3S)-2-(phenylsulfonyl)-2-azabicyclo[2.2.2]oct-3-yl]carbonyl]-L-phenylalanine]	0.054 µM	0.223 µM	–	–	–
Cc1ccc(S(=O)(=O)N2C3CCC(CC3)C2C(=O)N[C@@H](Cc2ccc(NC(=O)c3c(Cl)cc(Cl)cc3Cl)cc2)C(=O)O)cc1 (stereo partly drawn) [Cpd 2, 4-[(2,4,6-trichlorobenzoyl)amino]-N-[[2-[(4-methylphenyl)sulfonyl]-2-azabicyclo[2.2.2]oct-3-yl]carbonyl]-L-phenylalanine]	0.051 µM	0.098 µM	–	–	–
Cc1ccc(S(=O)(=O)N2C3CCC(CC3)C2C(=O)N[C@@H](Cc2cccc(NC(=O)c3c(Cl)cccc3Cl)c2)C(=O)O)cc1 (stereo partly shown) [Cpd 37, 3-[(2,6-dichlorobenzoyl)amino]-N-[[2-[(4-methylphenyl)sulfonyl]-2-azabicyclo[2.2.2]oct-3-yl]carbonyl]phenylalanine]	–	–	> 10 µM	> 5 µM	–
Cc1ccc(S(=O)(=O)N2C3CCC(CC3)C2C(=O)N[C@@H](Cc2ccc(NC(=O)c3ccccc3Cl)cc2)C(=O)O)cc1 (stereo partly drawn) [Cpd 10, 4-[(2-chlorobenzoyl)amino]-N-[[2-[(4-methylphenyl)sulfonyl]-2-azabicyclo[2.2.2]oct-3-yl]carbonyl]-L-phenylalanine]	0.145 µM	4.41 µM	–	–	–
Cc1ccc(S(=O)(=O)N2C3CCC(CC3)C2C(=O)N[C@@H](Cc2ccc(NC(=O)c3c(F)cccc3F)cc2)C(=O)O)cc1 (stereo partly drawn) [Cpd 11, 4-[(2,6-difluorobenzoyl)amino]-N-[[2-[(4-methylphenyl)sulfonyl]-2-azabicyclo[2.2.2]oct-3-yl]carbonyl]-L-phenylalanine]	0.179 µM	1.49 µM	–	–	–
CN(C)C(=O)Oc1ccc(C[C@H](NC(=O)C2C3CCC(CC3)N2S(=O)(=O)c2cccs2)C(=O)O)cc1 (stereo partly drawn) [Cpd 63, O-[(dimethylamino)carbonyl]-N-[[2-(2-thienylsulfonyl)-2-azabicyclo[2.2.2]oct-3-yl]carbonyl]-L-tyrosine]	–	–	–	–	IC50 (α4β1 integrin receptor; Inhibition of Binding of Ramos Cells to Immobilized VCAM-1 IC50, Table III): 0.112 µM; IC50 (human α4β7): 0.286 µM
O=C(O)c1ccccc1C(=O)Nc1ccc(C[C@H](NC(=O)[C@@H]2C3CCC(CC3)N2S(=O)(=O)c2ccccc2)C(=O)O)cc1 [Cpd 48, 4-[(2-carboxybenzoyl)amino]-N-[[(3S)-2-(phenylsulfonyl)-2-azabicyclo[2.2.2]oct-3-yl]carbonyl]-L-phenylalanine]	–	–	> 10 µM	> 5 µM	–
O=C(Nc1ccc(C[C@H](NC(=O)[C@@H]2C3CCC(C3)N2S(=O)(=O)c2ccccc2)C(=O)O)cc1)c1c(Cl)cccc1Cl (stereo partly drawn) [Cpd 16a, 4-[(2,6-dichlorobenzoyl)amino]-N-[[(3S)-2-(phenylsulfonyl)-2-azabicyclo[2.2.1]hept-3-yl]carbonyl]-L-phenylalanine]	0.153 µM	–	–	–	IC50 (α4β1 integrin receptor; [3]): 0.153 µM; IC50 (human α4β7; [4]): 2.09 µM
O=C(O)[C@H](Cc1ccc(OCc2c(Cl)cccc2Cl)c(F)c1)NC(=O)[C@@H]1C2CCC(CC2)N1S(=O)(=O)c1ccccc1 [Cpd 62a, O-[(2,6-dichlorophenyl)methyl]-3-fluoro-N-[[(3S)-2-(phenylsulfonyl)-2-azabicyclo[2.2.2]oct-3-yl]carbonyl]-L-tyrosine]	–	–	> 10 µM	> 5 µM	–
O=C(Nc1ccc(C[C@H](NC(=O)C2C3CCC(CC3)N2S(=O)(=O)c2ccccc2)C(=O)O)cc1)C1CCNCC1 (stereo partly drawn) [Cpd 59, 4-[(4-piperidinylcarbonyl)amino]-N-[[2-(phenylsulfonyl)-2-azabicyclo[2.2.2]oct-3-yl]carbonyl]-L-phenylalanine]	0.237 µM	1.5 µM	–	–	–
